Data as given in US6710168B1, “Glycopeptide antibiotics, combinatorial libraries of glycopeptide antibiotics and methods of producing same” (The Trustees of the University of Princeton, priority 1999, dated 2004).
Converted amounts (≈) assume the structure as drawn. Read-outs that look alike come from different tables or passages of the source.

How the values were obtained:
Type in all cases: cell-based
[1] = test system: gentamicin, streptmycin, vancomycin resistant Enterococcus faecalis (ATCC 51299); experiment: microbe, parasite or virus in culture; conditions: for MIC: Enterococcus faecalis, ATCC51299, read-out: MIC VREF; for MIC VREF: Enterococcus faecalis ATCC51299, vancomycin resistance
Description: (§1) Evaluation of vancomycin analogs is performed using in vitro susceptibility tests and a time-kill assay. [NCCL Standard, 1993] In susceptibility tests, five strains of bacteria, two of the most important: Staphylococcus aureus and Enterococcus faecalis (both susceptible and resistant strains), and Bacillus cereus are chosen and bacteria viability remaining in each well is evaluated using a colorimetric assay based on the tetrazolium salt 3-(4,5-dimethyl-2-thiazolyl)-2,5-diphenyl-2H tetrazolium bromide (MTT) and minimum inhibitory concentration (MIC) values are determined as μg/mL. [Mosmann, T. (1983); Damour, O., et al. (1992); Mikami, Y., et al. (1994)] This assay gives susceptibility information quickly, efficiently, and clearly.
(§2) All strains [Bacillus cereus (ATCC® 11778), Staphylococcus aureus (ATCC® 29213), Methicillin resistant Staphylococcus aureus (ATCC® 33591), Enterococcus faecalis (ATCC® 29212), and gentamicin, streptmycin, vancomycin resistant Enterococcus faecalis (ATCC® 51299), are purchased from REMEL (Lenexa, Kans.).
(§3) MICs are determined by the microdilution method using 96-well microplates. Samples are suspended with Cation Adjusted (20 to 25 mg of Ca^2+/mL and 10 to […] of Mg^2+) Mueller-Hinton broth (Difco Laboratories, Detroit, Mich.) and are two-fold diluted from 5 μg/mL to […] on microplates (12 step dilution). To each well, which contained 100 μL of cell suspension (10^6 CFU/mL), 100 μL of antibiotic solution is added and the plates are incubated at 37° C. for 24 h. 50 μL of MTT solution (1 mg/mL) is added to each well, then the plates are incubated under the same conditions (incubation time; 30 min for Bacillus cereus, Staphylococcus aureus, and Methicillin resistant Staphylococcus aureus; 2 hours for Enterococcus faecalis and Gentamicin, Streptmycin, Vancomycin Enterococcus faecalis). MTT is a yellow tetrazolium salt that is reduced by mitochondrial enzymes in viable cells to an insoluble blue formazan product. MIC values are evaluated by observing the lowest drug concentration to inhibit bacteria growth.

[2] = test system: Enterococcus faecalis CL5244, VanB; experiment: MIC susceptibility test; conditions: for MIC: read-out: MIC CL5244
Description: as §1, §3

[3] = test system: Enterococcus faecium CL5137, VanA; experiment: MIC susceptibility test; conditions: for MIC: read-out: MIC CL5137
[4] = test system: Methicillin resistant Staphylococcus aureus (ATCC 33591); experiment: MIC susceptibility test, microdilution with MTT readout; conditions: for MIC: ATCC 3359 / ATCC 33591 / MRSA, read-out: MIC MRSA
Description: as §1, §2, §3

[5] = test system: Bacillus cereus (ATCC 11778); experiment: as above; conditions: for MIC: Bacillus cereus, ATCC11778, read-out: MIC BC; for MIC BC: Bacillus ceres ATCC11778
Description: as §1, §2, §3

[6] = test system: Enterococcus faecalis (ATCC 29212); experiment: as above
Description: as §1, §2, §3

[7] = test system: Staphylococcus aureus (ATCC 29213); experiment: as above
Description: as §1, §2, §3

[8] = Enterococcus faecalis CL5244, VanB
[9] = Enterococcus faecium CL5137, VanA
[10] = Staphylococcus aureus ATCC3359, Methicillin resistance
[11] = Enterococcus faecalis ATCC29212, read-out: MIC EF
[12] = Staphylococcus aureus ATCC29213, read-out: MIC SA
[13] = Enterococcus faecalis ATCC29212
[14] = Staphylococcus aureus ATCC29213

Compound	MIC [1] [µg/mL]	MIC [2, 8] [µg/mL]	MIC [3, 9] [µg/mL]	MIC [4, 10] [µg/mL]	MIC [5] [µg/mL]	MIC [6, 11] [µg/mL]	MIC [7, 12] [µg/mL]	MIC VREF [1] [µg/mL]	MIC CL5244 [2, 8] [µg/mL]	MIC CL5137 [3, 9]	MIC MRSA [4, 10] [µg/mL]	MIC BC [5] [µg/mL]	MIC EF [6, 13] [µg/mL]	MIC SA [7, 14] [µg/mL]	MIC ([2]; Enterococcus faecalis) [µg/mL]	MIC ([3]; Enterococcus faecium) [µg/mL]	MIC ([4]; Staphylococcus aureus) [µg/mL]	MIC ([6]; Enterococcus faecalis, ATCC29212, read-out: MIC EF) [µg/mL]	MIC ([7]; Staphylococcus aureus, ATCC29213, read-out: MIC SA) [µg/mL]
CN[C@@H](CC(C)C)C(=O)N[C@H]1C(=O)N[C@@H](CC(N)=O)C(=O)N[C@H]2C(=O)NC3C(=O)N[C@H](C(=O)N[C@@H](C(=O)O)c4cc(O)cc(O)c4-c4cc3ccc4O)[C@H](O)c3ccc(c(Cl)c3)Oc3cc2cc(c3OC2OC(CSc3nnc(C)c(O)n3)C(O)C(O)C2OC2CC(C)(N)C(O)C(C)O2)Oc2ccc(cc2Cl)[C@H]1O (some centres unmarked) [LXIV, Glucose-C6-2-thio-6-azathymine Vancomycin]	0.16 (≈ 0.102 µM)	1.2 (≈ 0.762 µM)	> 500	0.32 (≈ 0.203 µM)	0.08 (≈ 0.0508 µM)	0.12 (≈ 0.0762 µM)	0.24 (≈ 0.152 µM)	–	–	–	–	–	–	–	–	–	–	–	–
CNC(CC(C)C)C(=O)NC1C(=O)NC(CC(N)=O)C(=O)NC2C(=O)NC3C(=O)NC(C(=O)NC(C(=O)O)c4cc(O)cc(O)c4-c4cc3ccc4O)C(O)c3ccc(c(Cl)c3)Oc3cc2cc(c3OC2OC(CSc3nc(N)n[nH]3)C(O)C(O)C2OC2CC(C)(N)C(O)C(C)O2)Oc2ccc(cc2Cl)C1O (centres unmarked) [LVI, Glucose-C6-3-amino-5-mercapto-1,2,4-triazole Vancomycin]	–	–	–	–	–	–	–	0.63 (≈ 0.407 µM)	1.6 (≈ 1.03 µM)	50< μg/mL	0.63 (≈ 0.407 µM)	1.0 (≈ 0.646 µM)	0.63 (≈ 0.407 µM)	0.48 (≈ 0.31 µM)	–	–	–	–	–
CN[C@H](CC(C)C)C(=O)N[C@H]1C(=O)N[C@@H](CC(N)=O)C(=O)N[C@H]2C(=O)N[C@H]3C(=O)N[C@H](C(=O)N[C@H](C(=O)O)c4cc(O)cc(O)c4-c4cc3ccc4O)[C@H](O)c3ccc(c(Cl)c3)Oc3cc2cc(c3OC2OC(CNC(=O)c3cnc4ccccc4n3)C(O)C(O)C2OC2CC(C)(NCc3ccc(-c4ccc(Cl)cc4)cc3)C(O)C(C)O2)Oc2ccc(cc2Cl)[C@H]1O (some centres unmarked) [LII, Glucose-C6-N-2-quinoxaloyl-vancosamine-N-4-(4-chlorophenyl)benzyl Vancomycin]	0.16 (≈ 0.0886 µM)	–	–	–	1.9 (≈ 1.05 µM)	–	–	–	–	–	–	–	–	–	0.2 (≈ 0.111 µM)	3.2 (≈ 1.77 µM)	5 (≈ 2.77 µM)	0.08 (≈ 0.0443 µM)	5 (≈ 2.77 µM)
CNC(CC(C)C)C(=O)NC1C(=O)NC(CC(N)=O)C(=O)NC2C(=O)NC3C(=O)NC(C(=O)NC(C(=O)O)c4cc(O)cc(O)c4-c4cc3ccc4O)C(O)c3ccc(c(Cl)c3)Oc3cc2cc(c3OC2OC(CN=P(c3ccccc3)(c3ccccc3)c3ccccc3)C(O)C(O)C2OC2CC(C)(NCc3ccc(-c4ccc(Cl)cc4)cc3)C(O)C(C)O2)Oc2ccc(cc2Cl)C1O.O=C(O)C(F)(F)F (centres unmarked) [CXXXVI, N-4-(4-Chlorophenyl)benzyl Vancosamine-glucose-C6-iminotriphenylphosphorane Vancomycin]	–	–	–	–	–	–	–	0.16	0.32	5.0 µg/mL	0.32	1.3	0.32	1.3	–	–	–	–	–
CCCCCCCCCCNC1(C)CC(OC2C(Oc3c4cc5cc3Oc3ccc(cc3Cl)C(O)C3NC(=O)C(NC(=O)C5NC(=O)C(CC(N)=O)NC(=O)C(NC(=O)C(CC(C)C)NC)C(O)c5ccc(c(Cl)c5)O4)c4ccc(O)c(c4)-c4c(O)cc(O)cc4C(C(=O)O)NC3=O)OC(CO)C(O)C2O)OC(C)C1O (centres unmarked) [N-decyl vancosamine vancomycin, reference compound]	–	–	–	–	–	–	–	0.32 (≈ 0.201 µM)	3.2 (≈ 2.01 µM)	25 µg/mL (≈ 15.7 µM)	0.48 (≈ 0.302 µM)	0.32 (≈ 0.201 µM)	0.16 (≈ 0.101 µM)	0.63 (≈ 0.396 µM)	–	–	–	–	–
CNC(CC(C)C)C(=O)NC1C(=O)NC(CC(N)=O)C(=O)NC2C(=O)NC3C(=O)NC(C(=O)NC(C(=O)O)c4cc(O)cc(O)c4-c4cc3ccc4O)C(O)c3ccc(c(Cl)c3)Oc3cc2cc(c3OC2OC(CNCc3ccc(-c4ccc(Cl)cc4)o3)C(O)C(O)C2OC2CC(C)(NCc3ccc(-c4ccc(Cl)cc4)cc3)C(O)C(C)O2)Oc2ccc(cc2Cl)C1O (centres unmarked) [L, Glucose-C6-N-5-(4-chlorophenyl)furan-1-methylene-vancosamine-N-4-(4-chlorophenyl)benzyl Vancomycin]	–	–	–	–	–	–	–	1.0 (≈ 0.544 µM)	0.8 (≈ 0.435 µM)	6.3 µg/mL (≈ 3.42 µM)	2.5 (≈ 1.36 µM)	3.8 (≈ 2.07 µM)	1.3 (≈ 0.707 µM)	5.0 (≈ 2.72 µM)	–	–	–	–	–
CN[C@@H](CC(C)C)C(=O)N[C@H]1C(=O)N[C@@H](CC(N)=O)C(=O)N[C@H]2C(=O)NC3C(=O)N[C@H](C(=O)N[C@@H](C(=O)O)c4cc(O)cc(O)c4-c4cc3ccc4O)[C@H](O)c3ccc(c(Cl)c3)Oc3cc2cc(c3OC2OC(CN=[N+]=[N-])C(O)C(O)C2OC2CC(C)(NCc3ccc(-c4ccc(Cl)cc4)cc3)C(O)C(C)O2)Oc2ccc(cc2Cl)[C@H]1O (some centres unmarked) [LXXIV, N-4-(4-Chlorophenyl)benzylvancosamine-glucose-C6-azide Vancomycin]	0.16 (≈ 0.0955 µM)	0.3 (≈ 0.179 µM)	13 (≈ 7.76 µM)	0.48 (≈ 0.287 µM)	0.32 (≈ 0.191 µM)	0.16 (≈ 0.0955 µM)	1 (≈ 0.597 µM)	–	–	–	–	–	–	–	–	–	–	–	–
CNC(CC(C)C)C(=O)NC1C(=O)NC(CC(N)=O)C(=O)NC2C(=O)NC3C(=O)NC(C(=O)NC(C(=O)O)c4cc(O)cc(O)c4-c4cc3ccc4O)C(O)c3ccc(c(Cl)c3)Oc3cc2cc(c3OC2OC(CI)C(O)C(O)C2OC2CC(C)(N)C(O)C(C)O2)Oc2ccc(cc2Cl)C1O (centres unmarked) [LXX, Glucose-C6-iodo Vancomycin]	–	–	–	–	–	–	–	1.9 (≈ 1.22 µM)	6.3 (≈ 4.04 µM)	50< μg/mL	1.3 (≈ 0.834 µM)	0.63 (≈ 0.404 µM)	0.63 (≈ 0.404 µM)	0.63 (≈ 0.404 µM)	–	–	–	–	–
CN[C@@H](CC(C)C)C(=O)N[C@H]1C(=O)N[C@@H](CC(N)=O)C(=O)N[C@H]2C(=O)NC3C(=O)N[C@H](C(=O)N[C@@H](C(=O)O)c4cc(O)cc(O)c4-c4cc3ccc4O)[C@H](O)c3ccc(c(Cl)c3)Oc3cc2cc(c3OC2OC(CSc3nnc(NN)n3N)C(O)C(O)C2OC2CC(C)(NCc3ccc(-c4ccc(Cl)cc4)cc3)C(O)C(C)O2)Oc2ccc(cc2Cl)[C@H]1O (some centres unmarked) [LXXXIV, N-4-(4-Chlorophenyl)benzylvancosamine-glucose-C6-5-thio-4-amino-3-hydrazino-1,2,4-triazole Vancomycin]	0.16 (≈ 0.09 µM)	0.2 (≈ 0.112 µM)	6.3 (≈ 3.54 µM)	0.48 (≈ 0.27 µM)	0.08 (≈ 0.045 µM)	0.12 (≈ 0.0675 µM)	0.63 (≈ 0.354 µM)	–	–	–	–	–	–	–	–	–	–	–	–
CN[C@@H](CC(C)C)C(=O)N[C@H]1C(=O)N[C@@H](CC(N)=O)C(=O)N[C@H]2C(=O)NC3C(=O)N[C@H](C(=O)N[C@@H](C(=O)O)c4cc(O)cc(O)c4-c4cc3ccc4O)[C@H](O)c3ccc(c(Cl)c3)Oc3cc2cc(c3OC2OC(CSc3nnc(N)s3)C(O)C(O)C2OC2CC(C)(N)C(O)C(C)O2)Oc2ccc(cc2Cl)[C@H]1O (some centres unmarked) [LXXVI, Glucose-C6-2-thio-5-amino-1,3,4-thiadiazole Vancomycin]	> 5	19 (≈ 12.1 µM)	> 50	0.63 (≈ 0.403 µM)	0.63 (≈ 0.403 µM)	1.3 (≈ 0.831 µM)	0.63 (≈ 0.403 µM)	–	–	–	–	–	–	–	–	–	–	–	–
CN[C@@H](CC(C)C)C(=O)N[C@H]1C(=O)N[C@@H](CC(N)=O)C(=O)N[C@H]2C(=O)NC3C(=O)N[C@H](C(=O)N[C@@H](C(=O)O)c4cc(O)cc(O)c4-c4cc3ccc4O)[C@H](O)c3ccc(c(Cl)c3)Oc3cc2cc(c3OC2OC(CN=[N+]=[N-])C(O)C(O)C2OC2CC(C)(N)C(O)C(C)O2)Oc2ccc(cc2Cl)[C@H]1O (some centres unmarked) [XLVI, Glucose-C6-azide Vancomycin]	2.5 (≈ 1.7 µM)	25 (≈ 17 µM)	> 50	1.3 (≈ 0.882 µM)	1 (≈ 0.678 µM)	1.3 (≈ 0.882 µM)	0.63 (≈ 0.427 µM)	–	–	–	–	–	–	–	–	–	–	–	–
